ChEMBL document CHEMBL1250454, “Oral oxytocin antagonists” (J Med Chem, 2010)
Values after ≈ are worked out from the molar mass of the structure shown. Blank lines part the entries; values can stand above or below the molecule they belong to.

Experiments:
Rattus norvegicus [1] = assay: Inhibition of oxytocin-induced uterine contraction in iv dosed rat; format: functional
[2] = Oral bioavailability in rhesus monkey; format: ADME, organism-based, Macaca mulatta; details: in vivo
Rattus norvegicus [3] = assay: Inhibition of oxytocin-induced uterine contraction in intraduodenally dosed rat; format: functional
Oxytocin receptor [4] = target: T1, Oxytocin receptor (Rattus norvegicus, UniProt P70536); assay: Displacement of [3H]-oxytocin from oxytocin receptor in rat uterus tissue; format: tissue-based
T1 sequence (P70536 whole entry): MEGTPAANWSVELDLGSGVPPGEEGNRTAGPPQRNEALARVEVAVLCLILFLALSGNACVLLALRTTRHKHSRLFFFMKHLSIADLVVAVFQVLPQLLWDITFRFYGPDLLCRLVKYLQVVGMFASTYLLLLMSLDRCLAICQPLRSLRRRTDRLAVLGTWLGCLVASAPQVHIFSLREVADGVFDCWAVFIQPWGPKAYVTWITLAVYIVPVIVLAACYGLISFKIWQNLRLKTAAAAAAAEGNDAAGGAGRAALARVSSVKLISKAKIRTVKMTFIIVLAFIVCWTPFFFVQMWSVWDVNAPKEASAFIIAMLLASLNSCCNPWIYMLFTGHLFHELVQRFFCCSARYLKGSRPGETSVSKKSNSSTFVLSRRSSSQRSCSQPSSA

Vasopressin V1a receptor [5] = target: T2, Vasopressin V1a receptor (Homo sapiens, UniProt P37288); assay: Displacement of [3H]vasopressin from vasopressin V1a receptor in human liver tissue
T2 sequence (P37288 whole entry): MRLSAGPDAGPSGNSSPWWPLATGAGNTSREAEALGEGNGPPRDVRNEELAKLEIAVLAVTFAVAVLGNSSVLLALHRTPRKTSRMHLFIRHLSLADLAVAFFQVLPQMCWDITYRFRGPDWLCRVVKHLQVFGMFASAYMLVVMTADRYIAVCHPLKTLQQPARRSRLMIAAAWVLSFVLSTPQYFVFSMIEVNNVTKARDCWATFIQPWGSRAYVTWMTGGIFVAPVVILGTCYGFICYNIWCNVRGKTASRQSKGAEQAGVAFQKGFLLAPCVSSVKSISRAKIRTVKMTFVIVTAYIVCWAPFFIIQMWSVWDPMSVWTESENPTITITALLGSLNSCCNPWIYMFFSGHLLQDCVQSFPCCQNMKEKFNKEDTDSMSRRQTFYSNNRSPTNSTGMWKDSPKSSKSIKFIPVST

Vasopressin V2 receptor [6] = target: Vasopressin V2 receptor (Rattus norvegicus, UniProt Q00788); assay: Displacement of [3H]vasopressin from vasopressin V2 receptor in rat kidney tissue
Chain of Vasopressin V2 receptor (Rattus norvegicus, UniProt Q00788) (Q00788 whole entry): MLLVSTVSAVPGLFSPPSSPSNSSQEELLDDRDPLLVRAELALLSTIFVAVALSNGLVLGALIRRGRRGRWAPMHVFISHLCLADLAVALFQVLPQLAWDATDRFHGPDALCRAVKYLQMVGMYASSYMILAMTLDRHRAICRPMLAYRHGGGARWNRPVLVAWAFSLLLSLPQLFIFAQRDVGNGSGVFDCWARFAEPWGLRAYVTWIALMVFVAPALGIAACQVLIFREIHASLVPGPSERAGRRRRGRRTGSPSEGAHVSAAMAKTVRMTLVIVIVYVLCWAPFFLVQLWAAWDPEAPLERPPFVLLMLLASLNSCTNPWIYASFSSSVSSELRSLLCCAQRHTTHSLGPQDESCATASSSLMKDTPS

Vasopressin V2 receptor [7] = target: T3, Vasopressin V2 receptor (Homo sapiens, UniProt P30518); assay: Displacement of [3H]vasopressin from vasopressin V2 receptor in human kidney tissue
T3 sequence (P30518 whole entry): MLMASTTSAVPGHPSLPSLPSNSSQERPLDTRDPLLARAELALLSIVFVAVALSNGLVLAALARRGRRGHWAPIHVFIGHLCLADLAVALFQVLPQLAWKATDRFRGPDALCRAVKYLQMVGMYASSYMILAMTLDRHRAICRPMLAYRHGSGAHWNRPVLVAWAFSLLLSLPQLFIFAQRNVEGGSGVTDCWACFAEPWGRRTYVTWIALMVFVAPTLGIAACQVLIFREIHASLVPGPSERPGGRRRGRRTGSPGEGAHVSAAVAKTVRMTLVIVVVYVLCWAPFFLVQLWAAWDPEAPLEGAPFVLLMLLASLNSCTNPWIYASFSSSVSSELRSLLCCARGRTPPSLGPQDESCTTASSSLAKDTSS

Oxytocin receptor [8] = target: T4, Oxytocin receptor (Homo sapiens, UniProt P30559); assay: Displacement of [3H]-oxytocin from oxytocin receptor in human uterus tissue; format: tissue-based
T4 sequence (P30559 whole entry): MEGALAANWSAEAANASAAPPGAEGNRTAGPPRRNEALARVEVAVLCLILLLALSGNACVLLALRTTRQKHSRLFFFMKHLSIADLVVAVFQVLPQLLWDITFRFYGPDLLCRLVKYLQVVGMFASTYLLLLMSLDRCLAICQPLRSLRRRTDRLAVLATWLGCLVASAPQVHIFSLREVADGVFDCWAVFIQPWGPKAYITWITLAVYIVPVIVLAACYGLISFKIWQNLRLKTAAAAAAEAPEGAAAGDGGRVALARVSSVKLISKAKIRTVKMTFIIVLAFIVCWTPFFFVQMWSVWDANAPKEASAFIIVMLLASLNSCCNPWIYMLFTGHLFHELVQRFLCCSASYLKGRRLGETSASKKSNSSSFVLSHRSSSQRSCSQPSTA

[9] = Half life in rhesus monkey; format: ADME, organism-based, Macaca mulatta; details: in vivo
[10] = Oral bioavailability in rat; format: ADME, organism-based; details: in vivo
Vasopressin V1a receptor [11] = target: Vasopressin V1a receptor (Rattus norvegicus, UniProt P30560); assay: Displacement of [3H]vasopressin from vasopressin V1a receptor in rat liver tissue
Chain of Vasopressin V1a receptor (Rattus norvegicus, UniProt P30560) (P30560 whole entry): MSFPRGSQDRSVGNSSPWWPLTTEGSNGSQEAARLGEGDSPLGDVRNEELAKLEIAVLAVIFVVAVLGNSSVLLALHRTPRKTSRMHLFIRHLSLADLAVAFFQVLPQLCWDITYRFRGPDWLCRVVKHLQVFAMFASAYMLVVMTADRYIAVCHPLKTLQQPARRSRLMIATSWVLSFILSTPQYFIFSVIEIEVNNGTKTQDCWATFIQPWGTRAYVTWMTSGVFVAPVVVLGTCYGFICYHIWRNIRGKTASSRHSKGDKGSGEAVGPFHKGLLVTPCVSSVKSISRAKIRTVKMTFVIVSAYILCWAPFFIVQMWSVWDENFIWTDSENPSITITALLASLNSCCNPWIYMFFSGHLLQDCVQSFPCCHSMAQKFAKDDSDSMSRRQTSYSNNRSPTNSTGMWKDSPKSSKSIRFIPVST

Homo sapiens [12] = species on record: Homo sapiens; assay: Selectivity ratio of Ki for human oxytocin receptor Ki for human vasopressin V2 receptor
[13] = Oral bioavailability in chimpanzee; format: ADME, organism-based, Pan troglodytes; details: in vivo
Homo sapiens [14] = species on record: Homo sapiens; assay: Selectivity ratio of Ki for human oxytocin receptor Ki for human vasopressin V1a receptor
[15] = Aqueous solubility of the compound at pH 5; format: physicochemical
Oxytocin receptor [16] = target: T4, Oxytocin receptor; assay: Displacement of [3H]-oxytocin from human oxytocin receptor expressed in HEK293-EBNA cells; format: cell-based
Vasopressin V1b receptor [17] = target: T5, Vasopressin V1b receptor (Homo sapiens, UniProt P47901); assay: Displacement of [3H]vasopressin from human vasopressin V1b receptor expressed in CHO cells; format: cell-based
T5 sequence (P47901 whole entry): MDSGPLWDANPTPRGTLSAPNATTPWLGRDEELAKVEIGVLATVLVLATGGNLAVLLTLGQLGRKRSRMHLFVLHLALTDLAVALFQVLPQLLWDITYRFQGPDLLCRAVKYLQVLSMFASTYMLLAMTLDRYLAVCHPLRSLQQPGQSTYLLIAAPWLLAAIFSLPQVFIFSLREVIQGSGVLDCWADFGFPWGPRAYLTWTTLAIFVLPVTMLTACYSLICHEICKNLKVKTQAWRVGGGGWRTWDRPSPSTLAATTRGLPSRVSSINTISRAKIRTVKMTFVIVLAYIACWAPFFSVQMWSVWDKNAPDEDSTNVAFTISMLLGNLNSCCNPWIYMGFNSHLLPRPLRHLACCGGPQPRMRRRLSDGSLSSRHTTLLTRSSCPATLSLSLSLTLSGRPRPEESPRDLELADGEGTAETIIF

Vasopressin V1a receptor [18] = target: T2, Vasopressin V1a receptor; assay: Displacement of [3H]vasopressin from human vasopressin V1a receptor expressed in CHO cells at 10 uM; format: cell-based
Vasopressin V2 receptor [19] = target: T3, Vasopressin V2 receptor; assay: Displacement of [3H]vasopressin from human vasopressin V2 receptor expressed in CHO cells; format: cell-based
[20] = Half life in rat; format: ADME, organism-based; details: in vivo
[21] = Clearance in rat; format: ADME, organism-based; details: in vivo
Vasopressin V1a receptor [22] = target: T2, Vasopressin V1a receptor; assay: Displacement of [3H]vasopressin from human vasopressin V1a receptor
Homo sapiens [23] = species on record: Homo sapiens; assay: Selectivity ratio of Ki for human oxytocin receptor Ki for human vasopressin V1b receptor
Vasopressin V2 receptor [24] = target: T3, Vasopressin V2 receptor; assay: Displacement of [3H]vasopressin from human vasopressin V2 receptor
Vasopressin V1b receptor [25] = target: T5, Vasopressin V1b receptor; assay: Displacement of [3H]vasopressin from human vasopressin V1b receptor
Rattus norvegicus [26] = assay: Inhibition of oxytocin-induced uterine contraction in iv dosed non-pregnant anaesthetized rat; format: functional
[27] = Aqueous solubility of the compound at pH 5.2; format: physicochemical; details: buffer
[28] = Oral bioavailability in human; format: ADME, organism-based; details: in vivo
[29] = Oral bioavailability in dog; format: ADME, organism-based, Canis lupus familiaris; details: in vivo
Rattus norvegicus [30] = assay: Inhibition of oxytocin-induced uterine contraction in long-term pregnant anaesthetized rat at 30 mg/kg, po; format: functional; details: read-out: INH
Rattus norvegicus [31] = assay: Inhibition of oxytocin-induced uterine contraction in non-pregnant anaesthetized rat at 30 mg/kg, po; format: functional
Oxytocin receptor [32] = target: T1, Oxytocin receptor; assay: Displacement of [3H]-oxytocin from rat oxytocin receptor expressed in HEK293-EBNA cells; format: cell-based

Ki (Oxytocin receptor [16]): 56 nM | Ki (Vasopressin V1b receptor [17]): > 10000 nM | Ki (Vasopressin V1a receptor [18]): 525 nM | Ki (Vasopressin V2 receptor [19]): 500 nM
SMILES: COc1ccc(-n2c(C)nnc2-c2ccc(-c3ccccc3OC)cc2)cn1

Ratio Ki (Homo sapiens [14]): 100
SMILES: CCOc1ccc(S(=O)(=O)N(CC(=O)N/N=C2\C(=O)Nc3ccccc32)c2ccc(C)cc2)cc1
ED50 (Rattus norvegicus [26]): 10 mg/kg

Ki (Vasopressin V1a receptor [22]): > 39800 nM | Ki (Vasopressin V2 receptor [24]): > 79400 nM | Ki (Vasopressin V1b receptor [25]): > 50100 nM
SMILES: CC(C)C[C@@H]1C(=O)N[C@H](C2Cc3ccccc3C2)C(=O)N1[C@@H](C(=O)NC(C)C)c1ccc(N(C)C)cc1

Ki (Vasopressin V1a receptor [22]): 6310 nM | Ki (Vasopressin V1b receptor [25]): > 6310 nM
SMILES: CC(C)C[C@@H]1C(=O)N[C@H](C2Cc3ccccc3C2)C(=O)N1[C@@H](C(=O)NC(C)C)c1ccc(F)cc1F

Ki (Oxytocin receptor [4]): 3.6 nM | Ki (Vasopressin V1a receptor [5]): 180 nM | solubility [27]: 2.5 mg/kg | bioavailability [28]: 20% | bioavailability [29]: 25% | Ki (Vasopressin V2 receptor [6]): 200 nM | Ki (Vasopressin V2 receptor [7]): 590 nM | Ki (Oxytocin receptor [8]): 13 nM | bioavailability [10]: 35% | Ki (Vasopressin V1a receptor [11]): 110 nM | Ratio Ki (Homo sapiens [12]): 45 | bioavailability [13]: 21% | Ratio Ki (Homo sapiens [14]): 14
SMILES: Cc1ccccc1N1CCN(S(=O)(=O)C[C@]23CC[C@H](C[C@@H]2NC(=O)[C@@H](N)CCS(C)(=O)=O)C3(C)C)CC1
AD50 (Rattus norvegicus [1]): 0.35 mg/kg | AD50 (Rattus norvegicus [3]): 7 mg/kg

Ratio Ki (Homo sapiens [23]): 23000 | Ki (Vasopressin V1b receptor [17]): 377 nM | Ratio Ki (Homo sapiens [12]): 580 | Ratio Ki (Homo sapiens [14]): 60
SMILES: CN(C)CCCNC(=O)CCc1ccc(S(=O)(=O)N(CC(=O)N/N=C2\C(=O)Nc3ccccc32)c2ccc(Cl)cc2)cc1
inhibition in vivo at 30 mg/kg (Rattus norvegicus [30]): 35% | inhibition in vivo at 30 mg/kg (Rattus norvegicus [31]): 35% | ED50 (Rattus norvegicus [26]): 1.4 mg/kg

Ki (Oxytocin receptor [32]): 25 nM | Ki (Vasopressin V1b receptor [17]): 2500 nM | solubility [15]: < 1 µg/mL
SMILES: CCOc1ccc(S(=O)(=O)N(CC(=O)NN=C2C(=O)Nc3ccccc32)c2ccc(C)cc2)cc1

More lines, now with the values behind:

SMILES: COc1cc(OC2CCN(C(C)=O)CC2)ccc1C(=O)N1CCC(N2C(=O)OCc3ccccc32)CC1
AD50 (Rattus norvegicus [1]): 0.55 mg/kg | bioavailability [2]: 13% | AD50 (Rattus norvegicus [3]): 2.5 mg/kg

SMILES: COc1cc(OC2CCN(Cc3ccc[n+]([O-])c3C)CC2)ccc1C(=O)N1CCC(N2C(=O)OCc3ccccc32)CC1
Ki (Oxytocin receptor [4]): 14 nM | Ki (Vasopressin V1a receptor [5]): 3200 nM | AD50 (Rattus norvegicus [1]): 0.78 mg/kg | Ki (Vasopressin V2 receptor [6]): 9700 nM | Ki (Vasopressin V2 receptor [7]): 28000 nM | Ki (Oxytocin receptor [8]): 4.9 nM | half-life [9]: 2 h | bioavailability [10]: 80% | Ki (Vasopressin V1a receptor [11]): 0.76 nM | Ratio Ki (Homo sapiens [12]): > 5700 | bioavailability [2]: 36% | bioavailability [13]: 90% | Ratio Ki (Homo sapiens [14]): 650 | AD50 (Rattus norvegicus [3]): 2.5 mg/kg | solubility [15]: 10000 µg/mL (≈ 17000 µM)

SMILES: CC1(C)[C@@H]2CC[C@@]1(CS(=O)(=O)N1CCC3(C=Cc4ccccc43)CC1)[C@@](O)(CC(=O)O)C2
Ki (Oxytocin receptor [4]): 370 nM | Ki (Vasopressin V1a receptor [5]): 1600 nM | AD50 (Rattus norvegicus [1]): 10 mg/kg | Ki (Vasopressin V2 receptor [6]): 29000 nM | Ki (Vasopressin V2 receptor [7]): 5600 nM | Ki (Oxytocin receptor [8]): 530 nM | Ki (Vasopressin V1a receptor [11]): 26000 nM | Ratio Ki (Homo sapiens [12]): 11 | Ratio Ki (Homo sapiens [14]): 3 | AD50 (Rattus norvegicus [3]): 30 mg/kg

SMILES: COc1ccc(-n2c(C)nnc2-c2cnc(-c3ccc(F)cc3C)cn2)cn1
Ki (Vasopressin V1b receptor [17]): > 10000 nM | half-life [20]: 1 h | clearance [21]: 50 mL/min/kg | solubility [15]: 6 µg/mL (≈ 15.9 µM)

SMILES: CC(C)C[C@@H]1C(=O)N[C@H](C2Cc3ccccc3C2)C(=O)N1[C@@H](C(=O)NC(C)C)c1ccc(F)cc1
Ki (Vasopressin V1a receptor [22]): > 6310 nM | Ratio Ki (Homo sapiens [23]): > 1500 | Ki (Vasopressin V2 receptor [24]): 1260 nM | Ratio Ki (Homo sapiens [12]): > 300 | Ki (Vasopressin V1b receptor [25]): > 6310 nM | Ratio Ki (Homo sapiens [14]): > 1500
